Data as given in ChEMBL document CHEMBL3885881, “DrugMatrix”.

Organism: Rattus norvegicus
Experiment: DrugMatrix - Regimen: Daily Repeat
Format: toxicity, organism-based, Sprague-Dawley
Parameters: regimen Daily Repeat, gender Male, age 6-8 weeks
Details: in vivo, po, route oral GAVAGE, vehicle 100 % WATER; for ABSOLUTE BASOPHIL / ABSOLUTE EOSINOPHIL / ABSOLUTE LYMPHOCYTE / ABSOLUTE MONOCYTE / ABSOLUTE SEGMENTED NEUTROPHIL / BASOPHIL / EOSINOPHIL / ERYTHROCYTE COUNT / HEMATOCRIT / HEMOGLOBIN / LEUKOCYTE COUNT / LYMPHOCYTE / MEAN CORPUSCULAR HEMOGLOBIN / MEAN CORPUSCULAR HEMOGLOBIN CONCENTRATION / MEAN CORPUSCULAR VOLUME / MONOCYTE / NEUTROPHIL / NUCLEATED RED BLOOD CELLS / PLATELET COUNT: tissue Blood; for ALANINE AMINOTRANSFERASE / ALBUMIN / ALKALINE PHOSPHATASE / ASPARTATE AMINOTRANSFERASE / BLOOD UREA NITROGEN / CARBON DIOXIDE / CHLORIDE / CHOLESTEROL / CREATINE PHOSPHOKINASE / CREATININE / GLUCOSE / LACTATE DEHYDROGENASE / LIPASE / PHOSPHORUS / POTASSIUM / SODIUM / TOTAL BILIRUBIN / TOTAL PROTEIN / URIC ACID: tissue Plasma
[1] = 48 mg/kg, 72 h, dose level High, time 3 day
[2] = 48 mg/kg, 120 h, dose level High, time 5 day
[3] = […], 72 h, dose 3.2 mg/Kg, dose level Low, time 3 day
[4] = […], 120 h, dose 3.2 mg/Kg, dose level Low, time 5 day

## O=C(c1ccccc1)c1ccc2n1CCC2C(=O)O (configuration not stated) [KETOROLAC]
[1]
  ABSOLUTE BASOPHIL: 0 CELLS/uL
  ABSOLUTE EOSINOPHIL: 209.67 CELLS/uL
  ABSOLUTE LYMPHOCYTE: 27063 CELLS/uL
  ABSOLUTE MONOCYTE: 1382.33 CELLS/uL
  ABSOLUTE SEGMENTED NEUTROPHIL: 3145 CELLS/uL
  BASOPHIL: 0%
  EOSINOPHIL: 0.67%
  ERYTHROCYTE COUNT: 3.97 x10E6/uL
  HEMATOCRIT: 23.77%
  HEMOGLOBIN: 9.13 G/DL
  LEUKOCYTE COUNT: 31.8 x10E3/uL
  LYMPHOCYTE: 85%
  MEAN CORPUSCULAR HEMOGLOBIN: 23.5 pg
  MEAN CORPUSCULAR HEMOGLOBIN CONCENTRATION: 38.6 G/DL
  MEAN CORPUSCULAR VOLUME: 60.83 fL
  MONOCYTE: 4.33%
  NEUTROPHIL: 10%
  NUCLEATED RED BLOOD CELLS: 0.33 /100WBC
  PLATELET COUNT: 1452.33 x10E3/uL
  ALANINE AMINOTRANSFERASE: 19.67 u/L
  ALBUMIN: 3.1 G/DL
  ALKALINE PHOSPHATASE: 170.33 u/L
  ASPARTATE AMINOTRANSFERASE: 55.33 u/L
  BLOOD UREA NITROGEN: 14 mg/dL
  CARBON DIOXIDE: 24 mmol/L
  CHLORIDE: 105.33 MEQ/L
  CHOLESTEROL: 64.67 mg/dL
  CREATINE PHOSPHOKINASE: 293 u/L
  CREATININE: 0.19 mg/dL
  GLUCOSE: 170 mg/dL
  LACTATE DEHYDROGENASE: 145.33 u/L
  LIPASE: 7.67 u/L
  PHOSPHORUS: 12.67 mg/dL
  POTASSIUM: 7.45 MEQ/L
  SODIUM: 144.47 MEQ/L
  TOTAL BILIRUBIN: 0.13 mg/dL
  TOTAL PROTEIN: 5.17 G/DL
  URIC ACID: 3 mg/dL
[2]
  ABSOLUTE BASOPHIL: 0 CELLS/uL
  ABSOLUTE EOSINOPHIL: 0 CELLS/uL
  ABSOLUTE LYMPHOCYTE: 14525.25 CELLS/uL
  ABSOLUTE MONOCYTE: 548.5 CELLS/uL
  ABSOLUTE SEGMENTED NEUTROPHIL: 4876.25 CELLS/uL
  BASOPHIL: 0%
  EOSINOPHIL: 0%
  ERYTHROCYTE COUNT: 4.52 x10E6/uL
  HEMATOCRIT: 27.15%
  HEMOGLOBIN: 10.4 G/DL
  LEUKOCYTE COUNT: 19.95 x10E3/uL
  LYMPHOCYTE: 76.25%
  MEAN CORPUSCULAR HEMOGLOBIN: 23.03 pg
  MEAN CORPUSCULAR HEMOGLOBIN CONCENTRATION: 38.32 G/DL
  MEAN CORPUSCULAR VOLUME: 60.12 fL
  MONOCYTE: 3.25%
  NEUTROPHIL: 20.5%
  NUCLEATED RED BLOOD CELLS: 0.5 /100WBC
  PLATELET COUNT: 2011.5 x10E3/uL
  ALANINE AMINOTRANSFERASE: 73.25 u/L
  ALBUMIN: 2.58 G/DL
  ALKALINE PHOSPHATASE: 411.75 u/L
  ASPARTATE AMINOTRANSFERASE: 294 u/L
  BLOOD UREA NITROGEN: 25.5 mg/dL
  CARBON DIOXIDE: 25.25 mmol/L
  CHLORIDE: 102 MEQ/L
  CHOLESTEROL: 70.5 mg/dL
  CREATINE PHOSPHOKINASE: 1478 u/L
  CREATININE: 0.18 mg/dL
  GLUCOSE: 115.25 mg/dL
  LACTATE DEHYDROGENASE: 533.75 u/L
  LIPASE: 13.5 u/L
  PHOSPHORUS: 13.42 mg/dL
  POTASSIUM: 7.39 MEQ/L
  SODIUM: 142.23 MEQ/L
  TOTAL BILIRUBIN: 0.18 mg/dL
  TOTAL PROTEIN: 5.4 G/DL
  URIC ACID: 2.45 mg/dL
[3]
  ABSOLUTE BASOPHIL: 0 CELLS/uL
  ABSOLUTE EOSINOPHIL: 59.33 CELLS/uL
  ABSOLUTE LYMPHOCYTE: 7885.33 CELLS/uL
  ABSOLUTE MONOCYTE: 273 CELLS/uL
  ABSOLUTE SEGMENTED NEUTROPHIL: 682.33 CELLS/uL
  BASOPHIL: 0%
  EOSINOPHIL: 0.67%
  ERYTHROCYTE COUNT: 5.54 x10E6/uL
  HEMATOCRIT: 36.1%
  HEMOGLOBIN: 13.73 G/DL
  LEUKOCYTE COUNT: 8.9 x10E3/uL
  LYMPHOCYTE: 88.67%
  MEAN CORPUSCULAR HEMOGLOBIN: 24.83 pg
  MEAN CORPUSCULAR HEMOGLOBIN CONCENTRATION: 38.07 G/DL
  MEAN CORPUSCULAR VOLUME: 65.27 fL
  MONOCYTE: 3%
  NEUTROPHIL: 7.67%
  NUCLEATED RED BLOOD CELLS: 0 /100WBC
  PLATELET COUNT: 1257 x10E3/uL
  ALANINE AMINOTRANSFERASE: 47.67 u/L
  ALBUMIN: 4.6 G/DL
  ALKALINE PHOSPHATASE: 439.67 u/L
  ASPARTATE AMINOTRANSFERASE: 96 u/L
  BLOOD UREA NITROGEN: 11.33 mg/dL
  CARBON DIOXIDE: 32.33 mmol/L
  CHLORIDE: 102.5 MEQ/L
  CHOLESTEROL: 64.67 mg/dL
  CREATINE PHOSPHOKINASE: 218 u/L
  CREATININE: 0.17 mg/dL
  GLUCOSE: 144.33 mg/dL
  LACTATE DEHYDROGENASE: 103.33 u/L
  LIPASE: 9.33 u/L
  PHOSPHORUS: 11.4 mg/dL
  POTASSIUM: 6 MEQ/L
  SODIUM: 148.9 MEQ/L
  TOTAL BILIRUBIN: 0.0667 mg/dL
  TOTAL PROTEIN: 6.63 G/DL
  URIC ACID: 0.43 mg/dL
[4]
  ABSOLUTE BASOPHIL: 0 CELLS/uL
  ABSOLUTE EOSINOPHIL: 0 CELLS/uL
  ABSOLUTE LYMPHOCYTE: 9946 CELLS/uL
  ABSOLUTE MONOCYTE: 214 CELLS/uL
  ABSOLUTE SEGMENTED NEUTROPHIL: 540 CELLS/uL
  BASOPHIL: 0%
  EOSINOPHIL: 0%
  ERYTHROCYTE COUNT: 6.18 x10E6/uL
  HEMATOCRIT: 38.5%
  HEMOGLOBIN: 14.07 G/DL
  LEUKOCYTE COUNT: 10.7 x10E3/uL
  LYMPHOCYTE: 93%
  MEAN CORPUSCULAR HEMOGLOBIN: 22.77 pg
  MEAN CORPUSCULAR HEMOGLOBIN CONCENTRATION: 36.63 G/DL
  MEAN CORPUSCULAR VOLUME: 62.23 fL
  MONOCYTE: 2%
  NEUTROPHIL: 5%
  NUCLEATED RED BLOOD CELLS: 0 /100WBC
  PLATELET COUNT: 1155 x10E3/uL
  ALANINE AMINOTRANSFERASE: 40 u/L
  ALBUMIN: 4.43 G/DL
  ALKALINE PHOSPHATASE: 422.33 u/L
  ASPARTATE AMINOTRANSFERASE: 70.67 u/L
  BLOOD UREA NITROGEN: 14.67 mg/dL
  CARBON DIOXIDE: 33.67 mmol/L
  CHLORIDE: 102 MEQ/L
  CHOLESTEROL: 81 mg/dL
  CREATINE PHOSPHOKINASE: 512.33 u/L
  CREATININE: 0.16 mg/dL
  GLUCOSE: 169.33 mg/dL
  LACTATE DEHYDROGENASE: 125 u/L
  LIPASE: 9 u/L
  PHOSPHORUS: 13.57 mg/dL
  POTASSIUM: 6.98 MEQ/L
  SODIUM: 147.2 MEQ/L
  TOTAL BILIRUBIN: 0.2 mg/dL
  TOTAL PROTEIN: 6.37 G/DL
  URIC ACID: 1.83 mg/dL
